Results from patent US11732560B1, “Nitrate treatment for injectivity improvement” (SAUDI ARABIAN OIL COMPANY, priority 2022, dated 2023).
Like-named read-outs stand apart in the source and are kept apart here.

Columns and labels:
NRSOB = test system: NRSOB
Procedure: (§1) A field experiment was conducted in an oil field water injection system to determine the effect of nitrate (NO3^-) for controlling sulfate reducing bacteria (SRB) in oilfield operations, and microbial influence corrosion (MIC) for surface pipelines.

sulfide production = test system: sulfide production
Procedure: as §1

[1] = test system: sulfate reducing bacteria (SRB)
Procedure: The second injection rate, 23 mg/l, was maintained for three weeks.

[2] = test system: Nitrate Utilizing Bacterial (NUB); test: Field trial microbiological monitoring: planktonic NUB population; assay type: cell-based, nitrate utilizing bacteria
Procedure: as §1

SMILES: O=[N+]([O-])O [nitrate]
- NRSOB numbers (NRSOB; nitrate dose reduced, decreased from 10^6): 10^4 per ml
- NRSOB numbers (NRSOB; over treatment with nitrate at 45 mg/L, increased from 10^3): 10^6 /ml
- sulfide level (sulfide production; nitrate 11 mg/L): 6.7 mg/L
- sulfide level (sulfide production; nitrate 23 mg/l): 8 mg/L
- sulfide concentration (sulfide production; nitrate ion 45 mg/L, 15.8-17.3 ppm detected beforehand): 8.3 ppm
- SRB activities ([1]; increase observed later after 23 mg/l period, maintained): 101 SRB/ml
- minimum SRB achieved ([1]; nitrate 11 mg/l): 10^1 bacteria/ml
- SRB activities ([1]; nitrate 23 mg/l, at the end of three weeks): below the detection limits
- drop in SRB activities ([1]; nitrate 45 mg/l, 10^2 SRB/ml before injection): 50%
- NUB population ([2]; initially detected, start of nitrate treatment): 104 NUB/ml
- planktonic NUB population ([2]; nitrate reduced to 23 mg/L and 11 mg/L, over 7 days and after 56 days): 106 mL⁻¹
- NUB population ([2]; over nitrate treatment with 45 mg/L): ~10^6 NUB/ml
